Measured values taken from PubChem BioAssay AID602339 (The Scripps Research Institute Molecular Screening Center, 2012).
The source made the active and inactive calls. How the calls were made is not given here.

Experiments:
Experiment in all cases: off-target hydrolase engagement by SILAC proteomics – cell-based, ABPP-SILAC, LC-MS, selectivity assay for DAGLb inhibitor project, late-stage follow-up (AID 602339)
[1] = test system: Apeh; details: mouse cells, active compounds read low
[2] = test system: Serhl; details: mouse cells, active compounds read low
[3] = test system: Dpp9; details: mouse cells, active compounds read low
[4] = test system: Dpp7; details: mouse cells, active compounds read low
[5] = test system: Ache; details: mouse cells, active compounds read low
[6] = test system: Lactb; details: mouse cells, active compounds read low
[7] = biological target: Platelet-activating factor acetylhydrolase 2, cytoplasmic (Mus musculus) (UniProt Q8VDG7); details: mouse cells, Pafah2, active compounds read low
Platelet-activating factor acetylhydrolase 2, cytoplasmic (Mus musculus), sequence (Q8VDG7 whole entry, looked up): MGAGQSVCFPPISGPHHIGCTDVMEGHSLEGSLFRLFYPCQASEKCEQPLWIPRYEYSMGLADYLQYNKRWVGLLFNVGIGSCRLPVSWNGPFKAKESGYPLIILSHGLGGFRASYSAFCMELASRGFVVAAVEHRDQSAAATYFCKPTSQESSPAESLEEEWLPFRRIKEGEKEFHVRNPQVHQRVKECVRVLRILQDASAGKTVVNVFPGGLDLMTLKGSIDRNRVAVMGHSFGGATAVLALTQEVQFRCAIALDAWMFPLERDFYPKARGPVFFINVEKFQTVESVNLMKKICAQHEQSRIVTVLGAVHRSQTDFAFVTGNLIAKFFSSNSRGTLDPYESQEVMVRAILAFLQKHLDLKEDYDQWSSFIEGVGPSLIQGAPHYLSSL

[8] = biological target: Acyl-protein thioesterase 1 (Mus musculus) (UniProt P97823); details: mouse cells, Lypla1, active compounds read low
Acyl-protein thioesterase 1 (Mus musculus), sequence (P97823 whole entry, looked up): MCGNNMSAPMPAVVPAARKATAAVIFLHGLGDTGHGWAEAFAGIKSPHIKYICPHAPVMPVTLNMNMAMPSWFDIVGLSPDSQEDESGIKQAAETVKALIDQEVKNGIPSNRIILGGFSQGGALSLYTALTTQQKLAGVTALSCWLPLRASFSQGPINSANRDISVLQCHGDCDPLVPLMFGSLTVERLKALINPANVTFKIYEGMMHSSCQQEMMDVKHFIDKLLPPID

[9] = test system: Kiaa1363; details: mouse cells, active compounds read low
[10] = test system: Pnpla6; details: mouse cells, active compounds read low
[11] = biological target: Diacylglycerol lipase-beta (Mus musculus) (UniProt Q91WC9); details: mouse cells, Daglb, active compounds read low
Diacylglycerol lipase-beta (Mus musculus), sequence (Q91WC9 whole entry, looked up): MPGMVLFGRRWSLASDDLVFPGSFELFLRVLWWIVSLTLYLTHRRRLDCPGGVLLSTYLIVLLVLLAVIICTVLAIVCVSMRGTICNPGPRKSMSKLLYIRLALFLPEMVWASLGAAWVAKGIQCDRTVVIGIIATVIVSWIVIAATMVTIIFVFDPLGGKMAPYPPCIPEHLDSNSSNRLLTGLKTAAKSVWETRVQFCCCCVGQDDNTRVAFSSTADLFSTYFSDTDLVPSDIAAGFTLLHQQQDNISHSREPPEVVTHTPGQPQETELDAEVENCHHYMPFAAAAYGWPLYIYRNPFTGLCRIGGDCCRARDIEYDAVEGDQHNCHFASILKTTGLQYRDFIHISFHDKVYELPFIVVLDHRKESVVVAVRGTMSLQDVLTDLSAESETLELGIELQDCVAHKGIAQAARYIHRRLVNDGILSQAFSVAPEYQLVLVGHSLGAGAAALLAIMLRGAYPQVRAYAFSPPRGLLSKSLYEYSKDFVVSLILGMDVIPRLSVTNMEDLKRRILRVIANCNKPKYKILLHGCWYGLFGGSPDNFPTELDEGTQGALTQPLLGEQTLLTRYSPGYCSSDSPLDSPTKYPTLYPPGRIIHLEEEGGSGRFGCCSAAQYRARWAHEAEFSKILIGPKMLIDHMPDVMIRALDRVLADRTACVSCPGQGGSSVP

[12] = test system: Esd; details: mouse cells, active compounds read low
[13] = biological target: Abhd4 (UniProt Q8VD66); details: mouse cells, active compounds read low
Abhd4, sequence (Q8VD66 whole entry, looked up): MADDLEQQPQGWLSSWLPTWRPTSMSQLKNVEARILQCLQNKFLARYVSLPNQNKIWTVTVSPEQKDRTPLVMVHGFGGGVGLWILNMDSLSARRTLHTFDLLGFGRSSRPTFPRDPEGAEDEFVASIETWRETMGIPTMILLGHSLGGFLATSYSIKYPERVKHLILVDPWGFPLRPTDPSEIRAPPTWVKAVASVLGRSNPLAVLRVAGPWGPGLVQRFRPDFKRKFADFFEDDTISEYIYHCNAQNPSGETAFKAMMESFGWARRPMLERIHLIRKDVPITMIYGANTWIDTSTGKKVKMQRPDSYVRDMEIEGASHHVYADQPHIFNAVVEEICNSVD

[14] = test system: Lonp1; details: mouse cells, active compounds read low
[15] = biological target: Monoacylglycerol lipase ABHD6 (Mus musculus) (UniProt Q8R2Y0); details: mouse cells, active compounds read low
Monoacylglycerol lipase ABHD6 (Mus musculus), sequence (Q8R2Y0 whole entry, looked up): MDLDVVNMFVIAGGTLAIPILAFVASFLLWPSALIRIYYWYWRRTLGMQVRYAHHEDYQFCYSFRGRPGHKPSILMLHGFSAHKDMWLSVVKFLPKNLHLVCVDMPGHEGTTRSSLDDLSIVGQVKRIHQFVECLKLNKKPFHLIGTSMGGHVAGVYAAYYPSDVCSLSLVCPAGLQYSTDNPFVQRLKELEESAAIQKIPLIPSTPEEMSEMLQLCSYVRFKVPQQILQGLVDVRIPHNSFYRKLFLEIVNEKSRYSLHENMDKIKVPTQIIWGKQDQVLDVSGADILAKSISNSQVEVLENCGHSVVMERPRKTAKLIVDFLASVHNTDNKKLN

[16] = test system: Acot2; details: mouse cells, active compounds read low
[17] = test system: Htra2; details: mouse cells, active compounds read low
[18] = test system: Pnpla7; details: mouse cells, active compounds read low
[19] = test system: Pafah1b2; details: mouse cells, active compounds read low
[20] = test system: Ddhd1; details: mouse cells, active compounds read low
[21] = test system: Pafah1b3; details: mouse cells, active compounds read low
[22] = test system: Lypla3; details: mouse cells, active compounds read low
[23] = test system: Bat5; details: mouse cells, active compounds read low
[24] = test system: Abhd12; details: mouse cells, active compounds read low
[25] = test system: Abhd11; details: mouse cells, active compounds read low
[26] = test system: Ppt2; details: mouse cells, active compounds read low
[27] = test system: Scpep1; details: mouse cells, active compounds read low
[28] = test system: Plat; details: mouse cells, active compounds read low
[29] = test system: Parl; details: mouse cells, active compounds read low
[30] = test system: Fam108c; details: mouse cells, active compounds read low
[31] = biological target: Prolyl endopeptidase (Mus musculus) (UniProt Q9QUR6); details: mouse cells, Prep, active compounds read low
Prolyl endopeptidase (Mus musculus), sequence (Q9QUR6 whole entry, looked up): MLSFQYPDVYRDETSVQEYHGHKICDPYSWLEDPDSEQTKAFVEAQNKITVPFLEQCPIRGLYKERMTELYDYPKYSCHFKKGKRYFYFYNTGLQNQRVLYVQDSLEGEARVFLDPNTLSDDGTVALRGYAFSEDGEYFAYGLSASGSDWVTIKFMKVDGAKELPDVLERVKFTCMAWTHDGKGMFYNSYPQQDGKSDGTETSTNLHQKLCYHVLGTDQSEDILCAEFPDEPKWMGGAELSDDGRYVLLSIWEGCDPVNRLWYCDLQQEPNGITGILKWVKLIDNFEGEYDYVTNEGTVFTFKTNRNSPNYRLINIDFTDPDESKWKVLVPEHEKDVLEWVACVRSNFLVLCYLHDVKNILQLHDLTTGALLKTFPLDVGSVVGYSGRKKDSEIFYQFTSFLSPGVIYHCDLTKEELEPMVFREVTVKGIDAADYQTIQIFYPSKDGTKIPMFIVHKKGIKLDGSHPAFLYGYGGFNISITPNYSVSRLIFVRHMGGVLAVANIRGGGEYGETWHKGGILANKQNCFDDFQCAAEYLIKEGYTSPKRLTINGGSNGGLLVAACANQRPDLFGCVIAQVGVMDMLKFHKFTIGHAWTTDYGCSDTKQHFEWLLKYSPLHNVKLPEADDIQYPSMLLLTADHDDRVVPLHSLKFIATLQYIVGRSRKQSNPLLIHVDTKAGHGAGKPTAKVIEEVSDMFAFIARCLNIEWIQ

[32] = test system: Tpp2; details: mouse cells, active compounds read low
[33] = test system: Lipe; details: mouse cells, active compounds read low
[34] = test system: Faah; details: mouse cells, active compounds read low
[35] = test system: Qrsl1; details: mouse cells, active compounds read low
[36] = test system: Iah1; details: mouse cells, active compounds read low
[37] = test system: D230012E17Rik; details: mouse cells, active compounds read low
[38] = test system: Pme1; details: mouse cells, active compounds read low
[39] = test system: Lypla2; details: mouse cells, active compounds read low
[40] = test system: Lyplal1; details: mouse cells, active compounds read low
[41] = biological target: Palmitoyl-protein thioesterase ABHD10, mitochondrial (Mus musculus) (UniProt Q6PE15); details: mouse cells, active compounds read low
Palmitoyl-protein thioesterase ABHD10, mitochondrial (Mus musculus), sequence (Q6PE15 whole entry, looked up): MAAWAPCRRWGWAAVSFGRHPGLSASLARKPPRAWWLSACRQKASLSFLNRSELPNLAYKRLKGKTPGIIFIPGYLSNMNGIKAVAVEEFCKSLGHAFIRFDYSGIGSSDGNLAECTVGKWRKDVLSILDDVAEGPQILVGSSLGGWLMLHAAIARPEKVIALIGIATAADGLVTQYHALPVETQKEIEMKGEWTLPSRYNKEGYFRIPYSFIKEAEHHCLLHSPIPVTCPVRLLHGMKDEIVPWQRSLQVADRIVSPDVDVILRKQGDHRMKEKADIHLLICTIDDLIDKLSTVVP

[42] = test system: Pnpla8; details: mouse cells, active compounds read low
[43] = test system: Fam108b; details: mouse cells, active compounds read low
[44] = test system: Fasn; details: mouse cells, active compounds read low
[45] = test system: Ctsa; details: mouse cells, active compounds read low
[46] = test system: Prepl; details: mouse cells, active compounds read low

**Q.** `COc1ccccc1-c1ccc(-c2cn(C(=O)N3CCCCC3Cc3ccccc3)nn2)cc1` (stereo unspecified) was tested. Which SILAC ratio (treated/control probe labeling) [1] did it give?
**A.** 0.97 (inactive)

**Q.** And the SILAC ratio (treated/control probe labeling) [2]?
**A.** 1.38 (inactive)

**Q.** What about the SILAC ratio (treated/control probe labeling) [3] of the same compound?
**A.** 0.94 (inactive)

**Q.** And the SILAC ratio (treated/control probe labeling) [4]?
**A.** 1.19 (inactive)

**Q.** And the SILAC ratio (treated/control probe labeling) [5]?
**A.** 1.39 (inactive)

**Q.** What about the SILAC ratio (treated/control probe labeling) [6] of the same compound?
**A.** 1.17 (inactive)

**Q.** And the SILAC ratio (treated/control probe labeling) [7]?
**A.** 0.98 (inactive)

**Q.** What about the SILAC ratio (treated/control probe labeling) [8] of the same compound?
**A.** 0.93 (inactive)

**Q.** And the SILAC ratio (treated/control probe labeling) [9]?
**A.** 1.32 (inactive)

**Q.** What about the SILAC ratio (treated/control probe labeling) [10] of the same compound?
**A.** 1.22 (inactive)

**Q.** And the SILAC ratio (treated/control probe labeling) [11]?
**A.** 0.11

**Q.** What about the SILAC ratio (treated/control probe labeling) [12] of the same compound?
**A.** 1.13 (inactive)

**Q.** What about the SILAC ratio (treated/control probe labeling) [13] of the same compound?
**A.** 0.96 (inactive)

**Q.** And the SILAC ratio (treated/control probe labeling) [14]?
**A.** 1.86 (inactive)

**Q.** What about the SILAC ratio (treated/control probe labeling) [15] of the same compound?
**A.** 0.17

**Q.** What about the SILAC ratio (treated/control probe labeling) [16] of the same compound?
**A.** 1.36 (inactive)

**Q.** What about the SILAC ratio (treated/control probe labeling) [17] of the same compound?
**A.** 1.33 (inactive)

**Q.** And the SILAC ratio (treated/control probe labeling) [18]?
**A.** 1.43 (inactive)

**Q.** What about the SILAC ratio (treated/control probe labeling) [19] of the same compound?
**A.** 1.03 (inactive)

**Q.** And the SILAC ratio (treated/control probe labeling) [20]?
**A.** 0.99 (inactive)

**Q.** And the SILAC ratio (treated/control probe labeling) [21]?
**A.** 0.99 (inactive)

**Q.** What about the SILAC ratio (treated/control probe labeling) [22] of the same compound?
**A.** 0.97 (inactive)

**Q.** What about the SILAC ratio (treated/control probe labeling) [23] of the same compound?
**A.** 1.33 (inactive)

**Q.** And the SILAC ratio (treated/control probe labeling) [24]?
**A.** 1.15 (inactive)

**Q.** And the SILAC ratio (treated/control probe labeling) [25]?
**A.** 1.41 (inactive)

**Q.** What about the SILAC ratio (treated/control probe labeling) [26] of the same compound?
**A.** 1.37 (inactive)

**Q.** What about the SILAC ratio (treated/control probe labeling) [27] of the same compound?
**A.** 1.46 (inactive)

**Q.** What about the SILAC ratio (treated/control probe labeling) [28] of the same compound?
**A.** 2.04 (inactive)

**Q.** And the SILAC ratio (treated/control probe labeling) [29]?
**A.** 1.07 (inactive)

**Q.** And the SILAC ratio (treated/control probe labeling) [30]?
**A.** 1.2 (inactive)

**Q.** What about the SILAC ratio (treated/control probe labeling) [31] of the same compound?
**A.** 1 (inactive)

**Q.** What about the SILAC ratio (treated/control probe labeling) [32] of the same compound?
**A.** 0.83 (inactive)

**Q.** And the SILAC ratio (treated/control probe labeling) [33]?
**A.** 1.12 (inactive)

**Q.** And the SILAC ratio (treated/control probe labeling) [34]?
**A.** 1.06 (inactive)

**Q.** What about the SILAC ratio (treated/control probe labeling) [35] of the same compound?
**A.** 1.45 (inactive)

**Q.** And the SILAC ratio (treated/control probe labeling) [36]?
**A.** 1.06 (inactive)

**Q.** And the SILAC ratio (treated/control probe labeling) [37]?
**A.** 1.19 (inactive)

**Q.** And the SILAC ratio (treated/control probe labeling) [38]?
**A.** 1.08 (inactive)

**Q.** And the SILAC ratio (treated/control probe labeling) [39]?
**A.** 1.01 (inactive)

**Q.** And the SILAC ratio (treated/control probe labeling) [40]?
**A.** 1.47 (inactive)

**Q.** What about the SILAC ratio (treated/control probe labeling) [41] of the same compound?
**A.** 1.02 (inactive)

**Q.** And the SILAC ratio (treated/control probe labeling) [42]?
**A.** 1.26 (inactive)

**Q.** And the SILAC ratio (treated/control probe labeling) [43]?
**A.** 1.16 (inactive)

**Q.** And the SILAC ratio (treated/control probe labeling) [44]?
**A.** 1.1 (inactive)

**Q.** And the SILAC ratio (treated/control probe labeling) [45]?
**A.** 1.5 (inactive)

**Q.** What about the SILAC ratio (treated/control probe labeling) [46] of the same compound?
**A.** 1 (inactive)
